In patent publication US4175081A, “5-Substituted thiadiazole ureas” (priority 1977, dated 1979):

Columns and labels:
[1] = tested on: Turnip (TP); assay: Pre-emergence herbicide test; type: in vivo, Brassica sp.; settings: Brassica rapa, pre-emergence, 336 h, two weeks after treatment; for pest or weed control at 4483.4 g/ha: 4 lb/acre
Summary of the method: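 In this pre-emergence greenhouse test, turnip was seeded on the surface of potting soil in 3' plastic pots, lightly covered with screened soil, and watered from below. One day later the pots were sprayed in a belt-fed spray hood. Watering continued only by sub-irrigation, and percent control was visually scored two weeks after treatment.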

[2] = tested on: Turnip (TP); assay: Post-emergence herbicide test; type: in vivo, Brassica sp.; settings: Brassica rapa, post-emergence, 336 h, two weeks after treatment; for pest or weed control at 4483.4 g/ha: 4 lb/acre
Summary of the method: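 A greenhouse post-emergence herbicide test on turnip. Seeds were sown on the surface of potting soil in 3' plastic pots, lightly covered with screened soil and watered from below. Planting was timed so seedlings had 1 or 2 true leaves above the cotyledons at spraying, done in a hood with a fixed nozzle. Control or injury was scored by eye after two weeks.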

[3] = tested on: Crabgrass (CG); assay: Pre-emergence herbicide test; type: in vivo, Digitaria sanquinalis; settings: Digitaria sanguinalis, pre-emergence, 336 h, two weeks after treatment; for pest or weed control at 4483.4 g/ha: 4 lb/acre
Summary of the method: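 Crabgrass (Digitaria sanquinalis) was surface seeded in 3' plastic pots of potting soil, covered with screened soil, and watered by sub-irrigation in greenhouse trays. Pots were seeded one day before spraying in a hood with a moving belt and fixed nozzle. Plants stayed in the greenhouse on sub-irrigation, and pre-emergence control was rated visually two weeks after treatment.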

[4] = tested on: Corn (CN); assay: Pre-emergence herbicide test; type: in vivo; settings: Zea mays, 336 h, two weeks after treatment; for pest or weed control at 4483.4 g/ha: 4 lb/acre
Summary of the method: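 Visual injury/control ratings were made 2 weeks post-spray on corn pots seeded (4 seeds, seed-diameter depth) the day before treatment. Application was a belt-hood spray of 38 gal/acre delivering 8 lbs active per acre, with a 4 lbs/acre rate also formulated. Watering was by sub-irrigation throughout.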

[5] = tested on: Bean (BN); assay: Pre-emergence herbicide test; type: in vivo, Phaseolus vulgaris var. Black Valentine; settings: Phaseolus vulgaris, 336 h, two weeks after treatment; for pest or weed control at 4483.4 g/ha: 4 lb/acre
Summary of the method: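 Visual injury/control ratings were taken two weeks post-spray on sub-irrigated Phaseolus vulgaris var. Black Valentine. Pots were sown a day before treatment. Pre-emergence spray delivered 8 lbs actual compound per acre (or 4 lbs/acre) at 38 gallons per acre.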

[6] = tested on: Yellow foxtail grass (YF); assay: Post-emergence herbicide test; type: in vivo, Setaria glauca; settings: Setaria, 336 h, two weeks after treatment; for pest or weed control at 4483.4 g/ha: 4 lb/acre
Summary of the method: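 Visual rating of injury/control made 2 weeks post-spray. Seedlings at a uniform growth stage in soil-filled pots received a hood spray of 8 lbs/acre active compound, 38 gallons/acre volume, with a 4 lbs/acre rate also formulated. Watering was by sub-irrigation only.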

[7] = tested on: Johnson grass (JG); assay: Post-emergence herbicide test; type: in vivo, Sorgum helepense; settings: Sorghum halepense, 336 h, two weeks after treatment; for pest or weed control at 4483.4 g/ha: 4 lb/acre
Summary of the method: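 Visual injury or control scores taken 2 weeks after a post-emergence spray of pot-grown plants. Application was 8 lbs/acre (or 4 lbs/acre) in 38 gal/acre. Plants were held in the greenhouse with sub-irrigation only.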

[8] = tested on: Cotton (CT); assay: Post-emergence herbicide test; type: in vivo, Gossypium hirsutum var. DPL smooth leaf; settings: Gossypium hirsutum, post-emergence, 336 h, two weeks after treatment; for pest or weed control at 4483.4 g/ha: 4 lb/acre
Summary of the method: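 This greenhouse post-emergence test measured how well spray treatments controlled cotton. Seedlings of Gossypium hirsutum var. DPL smooth leaf, with expanded cotyledons and a first true leaf 1' in length, were sprayed with 50 ml formulations in a belt-fed spray hood. They were then returned to the greenhouse and watered only by sub-irrigation. Injury was scored visually as % control after two weeks.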

[9] = tested on: Amaranth pigweed (PW); assay: Post-emergence herbicide test; type: in vivo, Amaranthus retroflexus; settings: 336 h, two weeks after treatment; for pest or weed control at 4483.4 g/ha: 4 lb/acre
Summary of the method: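 Visual injury or control ratings were made two weeks after spraying, with greenhouse watering by sub-irrigation only. Treatment was post-emergence, when pigweed seedlings had 1 or 2 true leaves, at 8 lbs active compound per acre (4 lbs/acre formulations also made) in a 38 gallons-per-acre spray volume.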

[10] = tested on: Barnyard grass (BG); assay: Pre-emergence herbicide test; type: in vivo; settings: Echinochloa crus-galli, 336 h, two weeks after treatment; for pest or weed control at 4483.4 g/ha: 4 lb/acre
Summary of the method: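 Greenhouse pre-emergence spray test: pots seeded one day before treatment received compound at rates of 8 or 4 lb/acre (38 gal/acre). Visual injury/control scores for Echinochloa crus-galli taken at two weeks, with watering by sub-irrigation only.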

[11] = tested on: Barnyard grass (BG); assay: Post-emergence herbicide test; type: in vivo; settings: Echinochloa crus-galli, 336 h, two weeks after treatment; for pest or weed control at 4483.4 g/ha: 4 lb/acre
Summary of the method: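 Greenhouse pot-grown barnyard grass seedlings sprayed post-emergence at 8 lbs active compound per acre (some at 4 lbs/acre) in 38 gallons per acre, then sub-irrigated. Injury or control rated visually two weeks after treatment.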

[12] = tested on: Corn (CN); assay: Post-emergence herbicide test; type: in vivo; settings: Zea mays, 336 h, two weeks after treatment; for pest or weed control at 4483.4 g/ha: 4 lb/acre
Summary of the method: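 Greenhouse seedlings grown in potting soil and sprayed post-emergence at 8 lbs compound/acre (formulations also made for 4 lbs/acre) in 38 gallons/acre spray volume. Watering by sub-irrigation only. Injury or control rated visually two weeks after treatment.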

[13] = tested on: Cotton (CT); assay: Pre-emergence herbicide test; type: in vivo, Gossypium hirsutum var. DPL smooth leaf; settings: Gossypium hirsutum, 336 h, two weeks after treatment; for pest or weed control at 4483.4 g/ha: 4 lb/acre
Summary of the method: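 Visual injury/control ratings were taken at two weeks post-spray. Pots seeded a day earlier received compound pre-emergence at 8 lbs/acre, or 4 lbs/acre, in a 38 gallon/acre spray volume, and were then held in the greenhouse, watered only from below.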

[14] = tested on: Crabgrass (CG); assay: Post-emergence herbicide test; type: in vivo, Digitaria sanquinalis; settings: Digitaria sanguinalis, post-emergence, 336 h, two weeks after treatment; for pest or weed control at 4483.4 g/ha: 4 lb/acre
Summary of the method: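 Crabgrass (Digitaria sanquinalis) was surface seeded individually in 3' plastic pots of potting soil, covered with screened soil, and watered by sub-irrigation in greenhouse trays. Planting was staggered so seedlings reached the target stage together. Post-emergence sprays were applied in a hood with a removable belt and fixed nozzle, and control was visually rated two weeks after treatment.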

[15] = tested on: Johnson grass (JG); assay: Pre-emergence herbicide test; type: in vivo, Sorgum helepense; settings: Sorghum halepense, 336 h, two weeks after treatment; for pest or weed control at 4483.4 g/ha: 4 lb/acre
Summary of the method: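 Visual injury or control rating two weeks post-treatment, after pre-emergence spray of 8 or 4 lbs active per acre (38 gal/acre) onto pots sown the previous day. Greenhouse watering by sub-irrigation only.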

[16] = tested on: Bean (BN); assay: Post-emergence herbicide test; type: in vivo, Phaseolus vulgaris var. Black Valentine; settings: Phaseolus vulgaris, post-emergence, 336 h, two weeks after treatment; for pest or weed control at 4483.4 g/ha: 4 lb/acre
Summary of the method: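 Bean seedlings (Phaseolus vulgaris var. Black Valentine) were grown in potting soil in 3' pots until the primary leaves expanded. They were then sprayed under a hood with a removable belt and fixed nozzle, using 50 ml formulations. Afterward they were returned to the greenhouse and watered only by sub-irrigation. Percent control was judged visually two weeks after treatment.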

[17] = tested on: Yellow foxtail grass (YF); assay: Pre-emergence herbicide test; type: in vivo, Setaria glauca; settings: Setaria, 336 h, two weeks after treatment; for pest or weed control at 4483.4 g/ha: 4 lb/acre
Summary of the method: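 Visual rating of injury/control made two weeks after a pre-emergence spray of 8 or 4 lbs active per acre (38 gal/acre) onto pots seeded the previous day. Greenhouse watering by sub-irrigation only.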

[18] = tested on: Amaranth pigweed (PW); assay: Pre-emergence herbicide test; type: in vivo, Amaranthus retroflexus; settings: 336 h, two weeks after treatment; for pest or weed control at 4483.4 g/ha: 4 lb/acre
Summary of the method: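 Visual injury or control ratings were made at two weeks on pre-emergence pots, sub-irrigated in the greenhouse. Seeds were sown a day before a hood spray delivering 8 lbs/acre (or 4 lbs/acre) of compound in 38 gallons per acre.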

CNC(=O)N(C)c1nnc(C(C)(C)C)s1 [Example 42]
90%: pest or weed control at 4483.4 g/ha [1] | pest or weed control ([3]; 2 lb/acre) | pest or weed control at 4483.4 g/ha [3] | pest or weed control at 8966.8 g/ha ([3]; 8 lb/acre) | pest or weed control at 8966.8 g/ha ([4]; 8 lb/acre) | pest or weed control at 4483.4 g/ha [5] | pest or weed control ([6]; 2 lb/acre) | pest or weed control at 4483.4 g/ha [6] | pest or weed control at 4483.4 g/ha [7] | pest or weed control at 4483.4 g/ha [10] | pest or weed control at 8966.8 g/ha ([10]; 8 lb/acre) | pest or weed control at 2241.7 g/ha ([11]; 2 lb/acre) | pest or weed control at 4483.4 g/ha [11] | pest or weed control at 8966.8 g/ha ([13]; 8 lb/acre) | pest or weed control at 4483.4 g/ha [15] | pest or weed control at 2241.7 g/ha ([17]; 2 lb/acre) | pest or weed control at 8966.8 g/ha ([17]; 8 lb/acre)
70%: pest or weed control ([7]; 2 lb/acre) | pest or weed control ([12]; 2 lb/acre) | pest or weed control at 4483.4 g/ha [12] | pest or weed control at 4483.4 g/ha [13] | pest or weed control at 4483.4 g/ha [14] | pest or weed control at 2241.7 g/ha ([15]; 2 lb/acre)
100%: pest or weed control at 2241.7 g/ha ([1]; 2 lb/acre) | pest or weed control at 8966.8 g/ha ([1]; 8 lb/acre) | pest or weed control at 2241.7 g/ha ([2]; 2 lb/acre) | pest or weed control at 4483.4 g/ha [2] | pest or weed control at 8966.8 g/ha ([2]; 8 lb/acre) | pest or weed control at 8966.8 g/ha ([5]; 8 lb/acre) | pest or weed control at 8966.8 g/ha ([6]; 8 lb/acre) | pest or weed control at 8966.8 g/ha ([7]; 8 lb/acre) | pest or weed control at 2241.7 g/ha ([8]; 2 lb/acre) | pest or weed control at 4483.4 g/ha [8] | pest or weed control at 8966.8 g/ha ([8]; 8 lb/acre) | pest or weed control at 2241.7 g/ha ([9]; 2 lb/acre) | pest or weed control at 4483.4 g/ha [9] | pest or weed control at 8966.8 g/ha ([9]; 8 lb/acre) | pest or weed control at 8966.8 g/ha ([11]; 8 lb/acre) | pest or weed control at 8966.8 g/ha ([12]; 8 lb/acre) | pest or weed control at 8966.8 g/ha ([14]; 8 lb/acre) | pest or weed control at 8966.8 g/ha ([15]; 8 lb/acre) | pest or weed control at 4483.4 g/ha [16] | pest or weed control at 8966.8 g/ha ([16]; 8 lb/acre) | pest or weed control at 2241.7 g/ha ([18]; 2 lb/acre) | pest or weed control at 4483.4 g/ha [18] | pest or weed control at 8966.8 g/ha ([18]; 8 lb/acre)
30%: pest or weed control at 2241.7 g/ha ([13]; 2 lb/acre)
0%: pest or weed control at 2241.7 g/ha ([4]; 2 lb/acre)
40%: pest or weed control at 2241.7 g/ha ([5]; 2 lb/acre) | pest or weed control ([14]; 2 lb/acre)
80%: pest or weed control at 2241.7 g/ha ([10]; 2 lb/acre) | pest or weed control at 2241.7 g/ha ([16]; 2 lb/acre) | pest or weed control at 4483.4 g/ha [17]
60%: pest or weed control at 4483.4 g/ha [4]

CN(C)C(=O)N(C)c1nnc(C(C)(C)C)s1 [Example 43]
100%: pest or weed control at 4483.4 g/ha [1] | pest or weed control at 4483.4 g/ha [2] | pest or weed control at 4483.4 g/ha [3] | pest or weed control at 4483.4 g/ha [6] | pest or weed control at 4483.4 g/ha [7] | pest or weed control at 4483.4 g/ha [8] | pest or weed control at 4483.4 g/ha [9] | pest or weed control at 4483.4 g/ha [10] | pest or weed control at 4483.4 g/ha [11] | pest or weed control at 4483.4 g/ha [12] | pest or weed control at 4483.4 g/ha [14] | pest or weed control at 4483.4 g/ha [16] | pest or weed control at 4483.4 g/ha [17] | pest or weed control at 4483.4 g/ha [18]
90%: pest or weed control at 4483.4 g/ha [4] | pest or weed control at 4483.4 g/ha [5] | pest or weed control at 4483.4 g/ha [13] | pest or weed control at 4483.4 g/ha [15]
